A word on the IC50: it is the concentration that gives 50% inhibition. A high value points to a need for much substance.

The test system of experiment [1] is Exportin-1 (Homo sapiens), O14980 [C528S]. The experiment in a line: Inhibition of fluorescently labeled PKI phi(0)Leu NES binding to human CRM1 C528S mutant expressed in Escherichia coli BL21 (DE3) at 62 uM by fluorescence polarization competition binding assay.
Experiment [2] addresses Exportin-1 (Saccharomyces cerevisiae) (UniProt P30822). Kind of experiment: Inhibition of fluorescently labeled PKI phi(0)Leu NES binding to Saccharomyces cerevisiae CRM1 expressed in Escherichia coli BL21 (DE3) at 0.2 to 200 uM by fluorescence polarization competition binding assay. (In general: Fluorescence polarisation rises when a labelled molecule tumbles more slowly, as on binding a larger partner.)

Experiment [3] has as its system Saccharomyces cerevisiae. Kind of experiment: Inhibition of fluorescently labeled PKI phi(0)Leu NES binding to Saccharomyces cerevisiae CRM1 Thr539Cys mutant expressed in Escherichia coli BL21 (DE3) at 0.2 to 200 uM by fluorescence polarization competition binding assay.
Experiment [4] addresses T1, Exportin-1 (Homo sapiens, UniProt O14980). Kind of experiment: Inhibition of fluorescently labeled PKI phi(0)Leu NES binding to human CRM1 expressed in Escherichia coli BL21 (DE3) by fluorescence polarization competition binding assay.
Experiment [5] has as its target T1, Exportin-1. Kind of experiment: Inhibition of immobilized HsCRM1-HsRanGTP-HsSPN binding to C-terminal His6-tagged and MBP-fused full length human CRM1 expressed in Escherichia coli SG13009 at 100 nmol incubated for 20 mins by pull-down assay.
In experiment [6] the target is Exportin-1 (Saccharomyces cerevisiae) (UniProt P30822). Kind of experiment: Inhibition of fluorescently labeled PKI phi(0)Leu NES binding to Saccharomyces cerevisiae CRM1 expressed in Escherichia coli BL21 (DE3) at 0.5 to 500 uM by fluorescence polarization competition binding assay.
For experiment [7] the target is unchanged. The following applies: 2 to 2000 nM.
Description: Inhibition of fluorescently labeled PKI phi(0)Leu NES binding to Saccharomyces cerevisiae CRM1 expressed in Escherichia coli BL21 (DE3) at 2 to 2000 nM by fluorescence polarization competition binding assay
The test system of experiment [8] is Exportin-1 (Homo sapiens), O14980 [C528S]. Particulars: 200 nM.
Description: Inhibition of fluorescently labeled PKI phi(0)Leu NES binding to human CRM1 C528S mutant expressed in Escherichia coli BL21 (DE3) at 200 nM by fluorescence polarization competition binding assay
For experiment [9], the system named is Saccharomyces cerevisiae. Kind of experiment: Inhibition of fluorescently labeled PKI phi(0)Leu NES binding to Saccharomyces cerevisiae CRM1 Thr539Cys mutant expressed in Escherichia coli BL21 (DE3) at 2 to 2000 nM by fluorescence polarization competition binding assay.
Experiment [10] has as its system Exportin-1 (Homo sapiens), O14980 [C528S]. The experiment in a line: Inhibition of fluorescently labeled PKI phi(0)Leu NES binding to human CRM1 C528S mutant expressed in Escherichia coli BL21 (DE3) at 6 uM by fluorescence polarization competition binding assay.

Molecules are shown by their SMILES. Calls of active or inactive are those of the source. The rule behind the calls is not given here.

Exportin-1 (Homo sapiens), O14980 [C528S], sequence (O14980 whole entry C528S): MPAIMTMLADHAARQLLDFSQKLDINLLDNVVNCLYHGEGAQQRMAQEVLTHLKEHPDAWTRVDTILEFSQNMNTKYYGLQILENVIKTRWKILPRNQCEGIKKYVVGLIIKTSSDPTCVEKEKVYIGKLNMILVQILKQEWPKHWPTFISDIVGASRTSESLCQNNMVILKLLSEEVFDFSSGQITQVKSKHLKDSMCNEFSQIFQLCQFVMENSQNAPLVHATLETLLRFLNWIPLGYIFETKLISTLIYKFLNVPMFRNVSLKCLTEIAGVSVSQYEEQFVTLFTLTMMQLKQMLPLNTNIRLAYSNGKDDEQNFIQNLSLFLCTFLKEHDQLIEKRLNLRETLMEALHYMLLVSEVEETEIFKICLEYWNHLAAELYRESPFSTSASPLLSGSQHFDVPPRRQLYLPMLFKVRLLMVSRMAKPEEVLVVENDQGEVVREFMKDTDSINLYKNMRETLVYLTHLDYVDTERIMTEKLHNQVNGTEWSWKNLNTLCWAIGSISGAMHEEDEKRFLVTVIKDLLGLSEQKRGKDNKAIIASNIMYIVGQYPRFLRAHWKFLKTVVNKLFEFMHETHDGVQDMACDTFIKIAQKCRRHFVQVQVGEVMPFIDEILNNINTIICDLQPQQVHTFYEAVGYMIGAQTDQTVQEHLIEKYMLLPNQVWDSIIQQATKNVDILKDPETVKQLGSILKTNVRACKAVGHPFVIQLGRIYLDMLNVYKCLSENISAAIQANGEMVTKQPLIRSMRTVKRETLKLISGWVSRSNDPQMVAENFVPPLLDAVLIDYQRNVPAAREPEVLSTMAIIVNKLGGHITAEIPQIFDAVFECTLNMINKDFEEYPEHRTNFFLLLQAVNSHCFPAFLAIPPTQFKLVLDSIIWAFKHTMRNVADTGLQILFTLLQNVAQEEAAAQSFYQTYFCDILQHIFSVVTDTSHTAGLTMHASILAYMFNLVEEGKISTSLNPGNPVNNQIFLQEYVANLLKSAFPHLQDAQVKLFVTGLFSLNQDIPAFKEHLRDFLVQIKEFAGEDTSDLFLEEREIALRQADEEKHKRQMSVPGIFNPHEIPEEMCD
T1 sequence (O14980 whole entry, the tested form may be a part): as the sequence (O14980 whole entry C528S) above, with S528C counted along it

Turning to `NC(=O)c1c(NC(NC(=O)c2ccccc2F)(C(F)(F)F)C(F)(F)F)sc2c1CCCC2`, the inhibition result in experiment [1], in experiment [2], in experiment [3] and in experiment [5] was “inactive” each time. In [4], this molecule gave an IC50 of 59 µM. Also, the inhibition result in [4] was “Dose-dependent effect”.

Take `CCOC(=O)c1n[nH]c2c1C(=O)N(c1ccc([N+](=O)[O-])cc1)C2=O`: the inhibition result in experiment [1], in experiment [6] and in experiment [5] was “Active” each time. In experiment [4], the IC50 amounted to 63 µM.

Take `CCC(=C/[C@H](C)C/C=C/C(C)=C/[C@@H](C)C(=O)[C@@H](C)[C@H](O)[C@@H](C)C/C(C)=C/C(=O)O)/C=C/[C@@H]1OC(=O)C=C[C@@H]1C` [LEPTOMYCIN B]: the inhibition entry in [7] and in experiment [8] was “inactive” each time. Moreover, in [9], the inhibition entry is “Active”. Further, in experiment [4], the IC50 turned out to be 0.151 µM.

Regarding `COc1cc(-c2nc(S(=O)(=O)c3ccc(Cl)cc3)c(N(C)C)o2)cc(OC)c1OC`, the inhibition entry in experiment [10], in experiment [2] and in [3] was “inactive” in each case. The same molecule showed an IC50 in [4] of 4.2 µM. For the same molecule, the inhibition entry in [4] was “Dose-dependent effect”. Further, in experiment [5], the inhibition entry is “Active”.

Take `COc1cc2cnsc2s1`: the inhibition result in experiment [1] is “inactive”. In [4], the IC50 was found to be 40 µM and the inhibition result is “Dose-dependent effect”. Moreover, the inhibition result in experiment [5] is “inactive”.
